The nature of one data set: in vivo. To be noted: NIH-III, mouse, in vivo, ip, 186 mg/kg; for Cmax: i.p. SN30000 186 mg/kg; for half-life: Terminal T1/2, i.p. SN30000 186 mg/kg.
Data set [1] is described as follows: Plasma, liver and brain PK after i.p. dosing with M14. In kind it is in vivo. To be noted: i.p. M14 135 mg/kg; for half-life: read-out: Terminal T1/2.
Experimental: Concentration-time data were analyzed by non-compartmental analysis using Phoenix WinNonlin (ver 6.4, Build 6.4.0768 Pharsight, United States); all AUC values were extrapolated to infinity using the linear trapezoidal rule. A compartmental model for plasma PK after dosing with SN30000 or M14 was fitted using Phoenix NLME v1.3 with random effects on the metabolite volumes of distribution, and temperature effects based on the observed body temperature at the last measurement time. Temperature effects were added or removed until there was no significant change in the log likelihood. Model fits were further assessed by visual inspection of the residuals and predicted PK.
The conditions of data set [2]: i.p. SN30000 186 mg/kg.
Experimental: (§1) M18 was quantified by absorbance detection with reference to an external standard calibration curve.
(§2) Concentration-time data were analyzed by non-compartmental analysis using Phoenix WinNonlin (ver 6.4, Build 6.4.0768 Pharsight, United States); all AUC values were extrapolated to infinity using the linear trapezoidal rule.
(§3) SN30000, M14 and M13 were quantified by LC-MS/MS using stable isotope internal standards, while M18 was quantified by absorbance detection using external standard calibration curves.
Setting [3] is: plasma, HT29 tumour-bearing mice.
The mark [4] stands for this setting: plasma, non-tumour-bearing mice.
[5] abbreviates: liver, HT29 tumour-bearing mice.

Each structure is given as a SMILES string. Read-outs that look alike come from different tables or passages of the source.

Experimental for in vivo: as §1, §2, §3

Take `O=C(O)CCc1nc2cc3c(cc2[n+]([O-])n1)CCC3` [M18]: the Cmax came to 139 ± 6 µM in “in vivo” (setting [3]); 119 ± 3 µM in “in vivo” (setting [4]); 144 ± 5.3 µM in data set [1] (NIH-III nude, mouse, in vivo, ip, 135 mg/kg, plasma, read-out: Cmax); 40.0 ± 3.0 µmol/kg in data set [1] (liver); 17.6 µmol/kg in data set [2] (HT29 tumour, tumour-bearing mice); 46.1 ± 5.2 µmol/kg in data set [2] (setting [5]). The Cmax in data set [2] (liver, non-tumour-bearing mice) is 53.5 ± 4.0 µmol/kg. The half-life in “in vivo” (setting [5]) turned out to be 6.53 h; in “in vivo” (liver, non-tumour-bearing mice), 3.05 h; in “in vivo” (setting [3]) it was 16 h; in “in vivo” (setting [4]) it was 2.88 h; in data set [1] (NIH-III nude, mouse, in vivo, ip, 135 mg/kg, liver), 2.41 h; in data set [1] (NIH-III nude, mouse, in vivo, ip, 135 mg/kg, plasma), 3.03 h. Moreover, the Detection in brain entry is reported as “undetectable in brain” in data set [1] and “not detected in brain” in data set [2]. The figures for the AUC in data set [1] (liver) and in data set [1] (plasma) were 93.3 µmol·h/kg and 349 µmol·h/kg, respectively. The Plasma concentration reached in data set [2] (negligible elimination up to 3 h) was greater than 100 µM. Further, the “AUC 0-3hr” value in data set [2] (HT29 tumour) was 34.8 µmol·h/kg; in data set [2] (setting [5]) it was 92 µmol·h/kg; in data set [2] (liver, non-tumour-bearing mice), 107 µmol·h/kg; in data set [2] (setting [3]), 322 µmol·h/kg; in data set [2] (setting [4]), 349 µmol·h/kg.

These data come from PMC5554537 (Frontiers in Pharmacology, 2017).
